Consider two molecules from patent US20230048888A1, “USE OF TRIAZOLOTRIAZINE DERIVATIVE IN TREATMENT OF DISEASES” (ZHEJIANG VIMGREEN PHARMACEUTICALS, LTD., priority 2019, published 2023).

As a reminder, the IC50 is the point on the concentration scale where inhibition reaches its midpoint.

Test [1] has as its target T1, human ADORA3 (Homo sapiens, UniProt P0DMS8).
T1 construct: host or cells: CHO
T1 sequence (P0DMS8 1-318): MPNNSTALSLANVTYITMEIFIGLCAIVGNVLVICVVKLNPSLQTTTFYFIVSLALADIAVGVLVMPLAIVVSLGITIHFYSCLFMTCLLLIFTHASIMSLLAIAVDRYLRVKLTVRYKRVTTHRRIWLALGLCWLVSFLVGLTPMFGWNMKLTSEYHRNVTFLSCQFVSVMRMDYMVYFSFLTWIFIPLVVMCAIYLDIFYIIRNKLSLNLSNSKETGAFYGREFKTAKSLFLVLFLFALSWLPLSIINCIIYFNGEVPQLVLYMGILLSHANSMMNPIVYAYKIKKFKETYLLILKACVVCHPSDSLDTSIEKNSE
Description: Calcium flow test (FLIPR), ADORA3 stably transfected CHO. In kind it is cell-based. Conditions: Table 9. On the procedure:
In this experiment, stably transfected cell lines over-expressing adenosine receptor coupled to human Gq were used, and the antagonistic function of Compound 22 was evaluated by testing the changes in intracellular calcium ion concentration. The binding of the A2AR agonist to A2AR could activate a downstream pathway to increase the intracellular calcium ion concentration. The antagonist would competitively occupy the binding site where the agonist binds to A2AR, thereby interrupting the intracellular signal transduction and leading to a change in the intracellular calcium ion concentration. By detecting the strength of the intracellular calcium ion signal, the antagonistic activities of the compound on human ADORA1, ADORA2A, ADORA2B and ADORA3 adenosine receptors were determined. […]
(§1) 7) The FLIPR instrument software was operated; following a set program, 10 μL of experimental buffer salt solution was added to the cell plate; and fluorescence signals were read. Then, 10 μL of the reference compound of agonist at a predetermined concentration was added to the cell plate, and the fluorescence signals were read. After reading, data was exported by means of “Max-Min” and “Read 91 to Maximum allowed” in the software, the EC80 of each cell line was calculated, and an agonist with a concentration of 6×EC80 was prepared.
9) The FLIPR instrument software was operated; following a set program, 10 μL of the test compound and 10 μL of the reference compound were added at a predetermined concentration to the cell plate; and the fluorescence signals were read. Then, 10 μL of the reference compound of agonist at a concentration of 6×EC80 was added to the cell plate, and the fluorescence signal were read. For the antagonist detection of the compound, data was exported by means of “Max-Min” and “Read 1 to 90” in the software. […]

The target in test [2] is T2, Human adenosine ADORA3 receptor membrane protein (Homo sapiens, UniProt P0DMS8).
T2 construct: purchased PerkinElmer ES-012-M400UA
T2 sequence (P0DMS8 1-318): T1 sequence (P0DMS8 1-318)
Description: Radioisotope ligand competitive binding, ADORA3 ([3H] HEMADO). The note with it: ADORA3 (IC50, nM, n = 3), binding test. On the procedure: ADORA3: 25 mM HEPES pH 7.4, 10 mM MgCl2, 1 mM CaCl2, 0.5% BSA
4) Preparation of compounds: the test compounds and the reference compounds were separately diluted with 100% DMSO. For the test compounds, the initial concentration was 10 μM, with double secondary wells; 4-fold gradient dilution was carried out at 10 points; and the final working concentration was 0.038 nM-10 μM (for the second and third detection of the test compound against an ADORA2A target, the initial concentration was 2 μM, with double secondary wells, 4-fold gradient dilution was carried out at 10 points, and the final working concentration was 0.0076 nM-2 μM). For the ADORA1, ADORA2A, ADORA2B, and ADORA3 reference compounds, the initial concentration was 1 μM, with double secondary wells, 4-fold gradient dilution was carried out at 10 points, and the final working concentration was 0.0038 nM-1 μM.
1 μL of a sample to be tested and 1 μL of a reference compound were added to a 96-well plate in sequence. […] 100 μL of cells and 100 μL of isotopes were added to all experimental wells. The 96-well plate was sealed; ADORA1, ADORA2B, and ADORA3 were incubated for 1 hour on a shaker (300 rpm) at room temperature (22° C.); and ADORA2A was incubated for 2 hours on a shaker (300 rpm) at room temperature (22° C.). At the same time, a GF/C filter plate was soaked with ADORA1, ADORA2A, ADORA2B, and ADORA3 by using 0.3% PEI for at least 30 minutes at room temperature, at 50 μL/well. After the incubation was completed, the incubated reaction system was collected onto the GF/C filter plate with a Harvester, washed 4 times and then dried for 0.5 hours in an oven at 50° C. The bottom of the dried GF/C filter plate was sealed with a film, 50 μL of scintillation solution was added to each well, which was then sealed with a Top-seal-A film. With Microbeta readings, the data was analyzed by GraphPad Prism 5.0.
% Inhibition=100×(1−(Sample_raw value−Low control_Average)/(High control_Average−Low control_Average))
The data was fitted with “log(inhibitor) vs response-variable slope” in GraphPad Prism 5.0 to obtain IC50.

For test [3], the target named is T3, human ADORA1 (Homo sapiens, UniProt P30542).
T3 construct: host or cells: HEK293
Kind of test: Calcium flow test (FLIPR), ADORA1 stably transfected HEK293. It is filed as cell-based. Conditions: Table 9.
Source text: The binding of the A2AR agonist to A2AR could activate a downstream pathway to increase the intracellular calcium ion concentration. The antagonist would competitively occupy the binding site where the agonist binds to A2AR, thereby interrupting the intracellular signal transduction and leading to a change in the intracellular calcium ion concentration. By detecting the strength of the intracellular calcium ion signal, the antagonistic activities of the compound on human ADORA1, ADORA2A, ADORA2B and ADORA3 adenosine receptors were determined. […]
as §1
9) The FLIPR instrument software was operated; following a set program, 10 μL of the test compound and 10 μL of the reference compound were added at a predetermined concentration to the cell plate; and the fluorescence signals were read. […]

T3 sequence (P30542 whole entry): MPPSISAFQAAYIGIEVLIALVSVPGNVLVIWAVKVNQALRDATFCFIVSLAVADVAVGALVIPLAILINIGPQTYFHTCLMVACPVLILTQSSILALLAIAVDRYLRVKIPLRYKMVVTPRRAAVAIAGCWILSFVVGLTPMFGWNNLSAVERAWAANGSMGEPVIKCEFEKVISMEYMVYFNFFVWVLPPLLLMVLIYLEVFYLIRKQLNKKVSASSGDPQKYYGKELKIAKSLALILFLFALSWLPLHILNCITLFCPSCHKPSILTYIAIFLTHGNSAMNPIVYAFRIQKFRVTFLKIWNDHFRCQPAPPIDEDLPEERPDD

For the molecule `Nc1nc(NCCc2ccc(NC3COC3)cc2)nc2nc(-c3ccco3)nn12` [Compound 22, 2-(furan-2-yl)-N5-(4-(oxetan-3-ylamino)phenethyl)-[1,2,4]triazolo[1,5-a][1,3,5]triazine-5,7-diamine], the IC50 in test [1] turned out to be 0.931 ± 0.0541 µM; in test [2] (Table 10 (IC50)), 872 ± 492 nM; in test [2] (Table 11), 703 nM; in test [3] it was 0.218 ± 0.148 µM.

On to `Cn1nnc(-c2ccc(CCNc3nc(N)n4nc(-c5ccco5)nc4n3)cc2)n1` [Compound 40, N5-(4-(2-methyl-2H-tetrazol-5-yl)phenethyl)-2-(furan-2-yl)-[1,2,4]triazolo[1,5-a][1,3,5]triazine-5,7-diamine], for which the IC50 in test [1] is 6.3 ± 2.89 µM; in test [2] (Table 10 (IC50)), 2000 ± 1030 nM; in test [2] (Table 11), 1610 nM; in test [3] it was 0.228 ± 0.105 µM.
